Assay results: patent publication US20240059695A1, “SUBSTITUTED IMIDAZO[1,5-b]PYRIDAZINE COMPOUNDS AS KINASE INHIBITORS AND USE THEREOF” (IMPACT THERAPEUTICS (SHANGHAI), INC, priority 2020, published 2024)
Where two headings read alike, the source gives them in different places.

Key:
[1] = tested on: human colon cancer LoVo cell; test: MTT proliferation assay, LoVo; assay type: cell-based; settings: read-out: IC50 (nM), proliferation of LoVo cell
Protocol: (§1) The cells were seeded into 96-well cell culture plate with a density of 2000/4000 cells per well and incubated overnight in a 5% CO2 incubator at 37° C. […] 5 μL diluent of each concentration was added to 120 μL of medium (25 times diluted) and mixed by shaking. The overnight cell plates were taken and the culture medium was removed, 195 μL of fresh medium was added to each well, and 5 μL of diluted medium containing the corresponding concentration of the test compound was added respectively (the final concentration of DMSO is 1%), and the culture plate was then placed in a 5% CO2 incubator at 37° C. for 4 days. After removing the original solution, 100 SEL of fresh serum-free DMEM medium containing MTT (0.5 mg/mL) was added to each well, the culture was continued. […] Cell viability (%)=(ODcompound−ODbackground)/ODDMSO−ODbackground)×100. GraphPad Prism 6.0 was used to analyze the data. The inhibitory activity of compounds on cell proliferation was plotted based on cell viability and the logarithm of compound concentration. The IC5.0 value was fitted by a sigmoidal dose response curve equation Y=100/(1+10^(LogC-LogIC50)), wherein C was the concentration of compound.

[2] = tested on: human lung cancer NCI-H460 cell; test: MTT proliferation assay, NCI-H460; assay type: cell-based; settings: NCI-H460, 96 h, read-out: IC50 (nM), proliferation of NCI-H460 cell
Protocol: The cells were digested by trypsinase and centrifuged at 800 rpm for 5 minutes, the supernatant was discarded, and the residual was resuspended with fresh medium […]) and counted.
as §1, with “μL” for “SEL”, “(%)=(ODcompound−ODbackground)/(ODDMSO−ODbackground)×100.” for “(%)=(ODcompound−ODbackground)/ODDMSO−ODbackground)×100.”, “IC50” for “IC5.0”, “[…],” for “Y=100/(1+10^(LogC-LogIC50)),”

[3] = molecular target: T1, ATR/ATRIP enzyme (Homo sapiens, UniProt Q13535); test: ATR enzyme activity experiment (HTRF); assay type: biochemical; settings: p53 substrate, 30 min room temperature, read-out: IC50 (nM), inhibitory effect on ATR kinase activity
T1 construct: purchased Eurofins 14-953
Protocol: The mixture was centrifuged at 1000 rpm for 1 minute, and reacted at room temperature protected from light for 30 minutes. Then 5 μL of EDTA stop solution (250 mM) was added to stop the reaction.

[4] = Pharmacokinetics following single oral administration to mice; assay type: in vivo; settings: mouse, CD-1 (ICR) mice, gavage 10 mg/kg, 0.5% methylcellulose/water suspension, plasma
Protocol: The compound of the present invention was formulated into a 0.5% methylcellulose/water uniform suspension, and was administered to CD-1 (ICR) mice by gavage at 10 mg/kg. Plasma samples were collected at 8 time points of 0.250, 0.500, 1.00, 2.00, 4.00, 6.00, 8.00 and 24.0 hours post-dose. Concentrations of the compound were determined by LC-MS/MS method.

[5] = Homo sapiens, LoVo, 96 h, MTT, 4 days

T1 sequence (Q13535 whole entry): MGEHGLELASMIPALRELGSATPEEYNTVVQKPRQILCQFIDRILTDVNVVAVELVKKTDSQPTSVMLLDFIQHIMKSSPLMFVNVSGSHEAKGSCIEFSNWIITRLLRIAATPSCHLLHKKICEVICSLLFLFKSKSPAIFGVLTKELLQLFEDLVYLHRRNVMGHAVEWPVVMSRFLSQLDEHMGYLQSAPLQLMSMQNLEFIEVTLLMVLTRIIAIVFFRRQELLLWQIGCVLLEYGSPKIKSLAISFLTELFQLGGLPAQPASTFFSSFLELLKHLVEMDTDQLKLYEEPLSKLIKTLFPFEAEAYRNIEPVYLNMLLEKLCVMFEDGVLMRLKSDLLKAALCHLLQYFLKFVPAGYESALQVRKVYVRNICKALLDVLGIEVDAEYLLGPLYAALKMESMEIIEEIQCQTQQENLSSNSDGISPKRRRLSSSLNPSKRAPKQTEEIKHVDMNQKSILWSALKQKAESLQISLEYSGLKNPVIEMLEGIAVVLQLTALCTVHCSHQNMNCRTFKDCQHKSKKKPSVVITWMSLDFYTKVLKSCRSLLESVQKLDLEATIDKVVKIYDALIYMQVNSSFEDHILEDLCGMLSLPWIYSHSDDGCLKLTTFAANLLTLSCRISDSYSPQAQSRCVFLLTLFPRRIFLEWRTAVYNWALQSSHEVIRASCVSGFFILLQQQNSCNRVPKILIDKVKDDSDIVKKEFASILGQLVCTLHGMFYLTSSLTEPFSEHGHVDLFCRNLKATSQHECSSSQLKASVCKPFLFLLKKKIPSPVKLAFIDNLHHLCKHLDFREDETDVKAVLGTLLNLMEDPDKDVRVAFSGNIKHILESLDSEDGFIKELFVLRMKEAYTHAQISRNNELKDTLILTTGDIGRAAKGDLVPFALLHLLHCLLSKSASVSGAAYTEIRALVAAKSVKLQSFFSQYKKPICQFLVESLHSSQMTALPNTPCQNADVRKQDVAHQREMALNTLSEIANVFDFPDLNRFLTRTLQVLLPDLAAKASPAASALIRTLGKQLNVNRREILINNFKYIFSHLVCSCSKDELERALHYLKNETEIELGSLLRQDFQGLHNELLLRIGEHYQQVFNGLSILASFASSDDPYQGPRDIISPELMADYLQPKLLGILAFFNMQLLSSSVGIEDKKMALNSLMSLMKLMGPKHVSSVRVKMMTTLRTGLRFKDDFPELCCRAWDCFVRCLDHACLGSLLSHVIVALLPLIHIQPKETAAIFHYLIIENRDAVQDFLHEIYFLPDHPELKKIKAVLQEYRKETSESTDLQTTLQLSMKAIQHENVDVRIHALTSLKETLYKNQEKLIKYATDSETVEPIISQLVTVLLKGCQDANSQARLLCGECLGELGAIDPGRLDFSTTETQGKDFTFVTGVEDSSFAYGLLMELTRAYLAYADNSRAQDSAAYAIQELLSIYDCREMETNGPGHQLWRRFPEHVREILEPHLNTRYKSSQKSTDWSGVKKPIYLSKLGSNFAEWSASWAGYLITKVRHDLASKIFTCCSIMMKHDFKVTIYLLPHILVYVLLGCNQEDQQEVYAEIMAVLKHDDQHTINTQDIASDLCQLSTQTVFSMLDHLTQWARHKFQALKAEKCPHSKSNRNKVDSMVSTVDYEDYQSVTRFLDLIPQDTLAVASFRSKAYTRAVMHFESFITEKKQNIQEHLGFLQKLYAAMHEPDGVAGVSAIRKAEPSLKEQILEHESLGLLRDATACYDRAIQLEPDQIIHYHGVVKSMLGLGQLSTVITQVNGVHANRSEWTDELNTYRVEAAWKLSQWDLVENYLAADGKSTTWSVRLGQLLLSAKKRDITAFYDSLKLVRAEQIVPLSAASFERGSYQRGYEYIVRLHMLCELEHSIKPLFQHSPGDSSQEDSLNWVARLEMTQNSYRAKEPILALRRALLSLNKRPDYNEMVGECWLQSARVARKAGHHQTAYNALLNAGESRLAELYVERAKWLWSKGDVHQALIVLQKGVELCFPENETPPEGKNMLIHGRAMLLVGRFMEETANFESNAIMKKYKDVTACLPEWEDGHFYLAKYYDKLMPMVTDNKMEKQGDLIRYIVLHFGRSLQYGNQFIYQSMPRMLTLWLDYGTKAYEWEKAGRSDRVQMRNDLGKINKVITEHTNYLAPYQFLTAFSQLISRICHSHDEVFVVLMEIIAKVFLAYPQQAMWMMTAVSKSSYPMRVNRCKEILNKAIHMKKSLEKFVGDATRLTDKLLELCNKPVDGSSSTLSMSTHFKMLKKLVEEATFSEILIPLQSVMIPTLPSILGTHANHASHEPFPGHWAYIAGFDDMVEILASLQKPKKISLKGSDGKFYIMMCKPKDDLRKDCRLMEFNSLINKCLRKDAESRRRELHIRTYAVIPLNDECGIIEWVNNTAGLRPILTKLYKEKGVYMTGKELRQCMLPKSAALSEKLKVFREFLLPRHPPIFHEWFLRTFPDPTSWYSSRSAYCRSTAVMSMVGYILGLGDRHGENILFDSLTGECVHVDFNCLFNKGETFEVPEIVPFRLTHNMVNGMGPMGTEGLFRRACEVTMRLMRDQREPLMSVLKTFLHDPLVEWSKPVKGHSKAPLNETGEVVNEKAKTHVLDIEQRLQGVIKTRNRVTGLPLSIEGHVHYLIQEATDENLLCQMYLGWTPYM
T1 sequence (Q8WXE1 whole entry partner): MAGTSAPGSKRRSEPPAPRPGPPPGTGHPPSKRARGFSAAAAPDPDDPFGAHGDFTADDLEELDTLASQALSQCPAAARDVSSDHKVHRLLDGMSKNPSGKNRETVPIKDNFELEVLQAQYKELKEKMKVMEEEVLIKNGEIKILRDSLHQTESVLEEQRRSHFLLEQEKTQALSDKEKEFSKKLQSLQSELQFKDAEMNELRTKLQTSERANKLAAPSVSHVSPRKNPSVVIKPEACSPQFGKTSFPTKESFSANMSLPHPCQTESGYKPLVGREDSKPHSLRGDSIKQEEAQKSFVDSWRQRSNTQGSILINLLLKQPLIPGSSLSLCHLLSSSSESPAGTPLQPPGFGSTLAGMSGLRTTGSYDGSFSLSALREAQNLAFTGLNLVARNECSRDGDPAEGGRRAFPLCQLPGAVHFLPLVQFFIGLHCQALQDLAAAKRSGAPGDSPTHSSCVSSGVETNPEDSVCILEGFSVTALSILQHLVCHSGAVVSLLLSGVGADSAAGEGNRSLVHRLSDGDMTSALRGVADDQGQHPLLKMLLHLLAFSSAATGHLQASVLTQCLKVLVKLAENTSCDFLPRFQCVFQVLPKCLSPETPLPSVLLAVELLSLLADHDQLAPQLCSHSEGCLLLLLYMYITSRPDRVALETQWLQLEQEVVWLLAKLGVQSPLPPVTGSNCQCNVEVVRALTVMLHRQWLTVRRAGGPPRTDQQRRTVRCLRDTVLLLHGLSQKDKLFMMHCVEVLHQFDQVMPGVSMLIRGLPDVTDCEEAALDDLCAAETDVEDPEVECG

Structure (SMILES) | IC50 [1, 5] [nM] | IC50 ([2]; MTT, 4 days) [nM] | IC50 [3] [nM] | AUC(0-inf) [4] [ng·h/mL] | AUC(0-t) [4] [ng·h/mL] | Cmax [4] [ng/mL] | half-life [4] [h] | IC50 ([1]; Homo sapiens, LoVo, 96 h) [nM] | IC50 [2] [nM] | IC50 ([1]; MTT, 4 days) [nM]
Cc1nc(-c2ccn[nH]2)n2nc(N3CCOC[C@H]3C)cc(-c3ccn(C(F)F)n3)c12 [Example 10, (R)-4-(4-(1-(difluoromethyl)-1H-pyrazol-3-yl)-5-methyl-7-(1H-pyrazol-5-yl)imidazo[1,5-b]pyridazin-2-yl)-3-methylmorpholine] | 116 | 97.3 | 217 |  |  |  |  |  |  | 
C[C@@H]1COCCN1c1nc(-c2ccnn2C)c2cnc(-c3cc[nH]n3)n2n1 [Example 27, (R)-3-methyl-4-(4-(1-methyl-1H-pyrazol-5-yl)-7-(1H-pyrazol-3-yl)imidazo[5,1-f][1,2,4]triazin-2-yl)morpholine] | 110 | 68.3 |  |  |  |  |  |  |  | 
Cc1cnn(C)c1-c1cc(N2CCOC[C@H]2C)nn2c(-c3ccn[nH]3)nc(C)c12 [Example 11, (R)-4-(4-(1,4-dimethyl-1H-pyrazol-5-yl)-5-methyl-7-(1H-pyrazol-5-yl)imidazo[1,5-b]pyridazin-2-yl)-3-methylmorpholine] |  | 30.1 | 2 |  |  |  |  |  |  | 
CCc1nc(-c2ccn[nH]2)n2nc(N3CCOC[C@H]3C)cc(-c3ccnn3C)c12 [Example 24, (R)-4-(5-ethyl-4-(1-methyl-1H-pyrazol-5-yl)-7-(1H-pyrazol-5-yl)imidazo[1,5-b]pyridazin-2-yl)-3-methylmorpholine] |  |  | 2 | 171000 | 162000 | 15400 | 5.4 | 38.8 | 28 | 
Cc1nc(-c2ccn[nH]2)n2nc(N3CCOC[C@H]3C)cc(-c3ccnn3C(C)C)c12 [Example 9, (R)-4-(4-(1-isopropyl-1H-pyrazol-5-yl)-5-methyl-7-(1H-pyrazol-5-yl)imidazo[1,5-b]pyridazin-2-yl)-3-methylmorpholine] | 39.3 | 30.2 | 3 |  |  |  |  |  |  | 
CC(C)c1nc(-c2ccn[nH]2)n2nc(N3CCOC[C@H]3C)cc(-c3ccnn3C)c12 [Example 26, (R)-4-(5-isopropyl-4-(1-methyl-1H-pyrazol-5-yl)-7-(1H-pyrazol-5-yl)imidazo[1,5-b]pyridazin-2-yl)-3-methylmorpholine] | 27.4 | 22.8 | 1 | 49000 | 46400 | 7180 | 5.82 |  |  | 
C[C@@H]1COCCN1c1cc(-c2ccnn2C)c2c(F)nc(-c3ccn[nH]3)n2n1 [Example 20, (R)-4-(5-fluoro-4-(1-methyl-1H-pyrazol-5-yl)-7-(1H-pyrazol-5-yl)imidazo[1,5-b]pyridazin-2-yl)-3-methylmorpholine] | 79.1 | 89.9 | 41 |  |  |  |  |  |  | 
Cc1nc(-c2ccn[nH]2)n2nc(N3CCOC[C@H]3C)cc(-c3cccnc3F)c12 [Example 16, (R)-4-(4-(2-fluoropyridin-3-yl)-5-methyl-7-(1H-pyrazol-5-yl)imidazo[1,5-b]pyridazin-2-yl)-3-methylmorpholine] | 17.6 | 12.5 | 9 |  |  |  |  |  |  | 
Cc1ccccc1-c1cc(N2CCOC[C@H]2C)nn2c(-c3ccn[nH]3)nc(C)c12 [Example 3, (R)-3-methyl-4-(5-methyl-7-(1H-pyrazol-5-yl)-4-(o-tolyl)imidazo[1,5-b]pyridazin-2-yl)morpholine] | 49.5 | 27.3 | 2 |  |  |  |  |  |  | 
C[C@@H]1COCCN1c1cc(-c2ccnn2C)c2c(Br)nc(-c3ccn[nH]3)n2n1 [Example 22, (R)-4-(5-bromo-4-(1-methyl-1H-pyrazol-5-yl)-7-(1H-pyrazol-5-yl)imidazo[1,5-b]pyridazin-2-yl)-3-methylmorpholine] | 24.1 | 17.1 | 2 | 63000 | 59000 | 7670 | 5.88 |  |  | 
Cc1nc(-c2ccn[nH]2)n2nc(N3CCOC[C@H]3C)cc(-c3ccccc3F)c12 [Example 14, (R)-4-(4-(2-fluorophenyl)-5-methyl-7-(1H-pyrazol-5-yl)imidazo[1,5-b]pyridazin-2-yl)-3-methylmorpholine] | 26.2 | 32 | 10 | 78700 | 77300 | 10800 | 3.75 |  |  | 
Cc1nc(-c2ccn[nH]2)n2nc(N3CCOC[C@H]3C)cc(-c3cnn(C)c3C)c12 [Example 12, (R)-4-(4-(1,5-dimethyl-1H-pyrazol-4-yl)-5-methyl-7-(1H-pyrazol-5-yl)imidazo[1,5-b]pyridazin-2-yl)-3-methylmorpholine] | 19.6 | 28 | 1 |  |  |  |  |  |  | 
Cc1nc(-c2ccn[nH]2)n2nc(N3CCOC[C@H]3C)cc(-c3cccc(C#N)c3)c12 [Example 6, (R)-3-(5-methyl-2-(3-methylmorpholino)-7-(1H-pyrazol-5-yl)imidazol, [1,5-b]pyridazin-4-yl)benzonitrile] | 44.1 | 21.8 | 5 |  |  |  |  |  |  | 
CCn1nccc1-c1cc(N2CCOC[C@H]2C)nn2c(-c3ccn[nH]3)nc(C)c12 [Example 2, (R)-4-(4-(1-ethyl-1H-pyrazol-5-yl)-5-methyl-7-(1H-pyrazol-5-yl)imidazo[1,5-b]pyridazin-2-yl)-3-methylmorpholine] | 43.6 | 21.9 | 3 |  |  |  |  |  |  | 
Cc1cc(-c2nc(C)c3c(-c4ccnn4C)cc(N4CCOC[C@H]4C)nn23)[nH]n1 [Example 8, (R)-3-methyl-4-(5-methyl-4-(1-methyl-1H-pyrazol-5-yl)-7-(3-methyl-1H-pyrazol-5-yl)imidazo[1,5-b]pyridazin-2-yl)morpholine] | 17.9 | 14.9 | 4 |  |  |  |  |  |  | 
Cc1ccc(-c2cc(N3CCOC[C@H]3C)nn3c(-c4ccn[nH]4)nc(C)c23)cn1 [Example 17, (R)-3-methyl-4-(5-methyl-4-(6-methylpyridin-3yl)-7-(1H-pyrazol-5-yl)imidazo[1,5-b]pyridazin-2-yl)morpholine] | 49.1 | 45.8 | 18 |  |  |  |  |  |  | 
Cc1nc(-c2ccn[nH]2)n2nc(N3CCOC[C@H]3C)cc(-c3ccncc3F)c12 [Example 18, (R)-4-(4-(3-fluoropyridin-4-yl)-5-methyl-7-(1H-pyrazol-5-yl)imidazo[1,5-b]pyridazin-2-yl)-3-methylmorpholine] | 41.8 | 28 | 10 |  |  |  |  |  |  | 47.2
Cc1nc(-c2ccn[nH]2)n2nc(N3CCOC[C@H]3C)cc(C3CCOCC3)c12 [Example 7, (R)-3-methyl-4-(5-methyl-7-(1H-pyrazol-5-yl)-4-(tetrahydro-2H-pyran-4-yl)imidazol[1,5-b]pyridazin-2-yl)morpholine] | 24.6 | 15.7 | 1 |  |  |  |  |  |  | 
Cc1nn(C)cc1-c1cc(N2CCOC[C@H]2C)nn2c(-c3ccn[nH]3)nc(C)c12 [Example 13, (R)-4-(4-(1,3-dimethyl-1H-pyrazol-4-yl)-5-methyl-7-(1H-pyrazol-5-yl)imidazo[1,5-b]pyridazin-2-yl)-3-methylmorpholine] | 46.5 | 33.2 | 14 |  |  |  |  |  |  | 
Cc1cc(S(C)(=O)=O)ccc1-c1cc(N2CCOC[C@H]2C)nn2c(-c3ccn[nH]3)nc(C)c12 [Example 15, (R)-3-methyl-4-(5-methyl-4-(2-methyl-4-(methylsulfonyl)phenyl)-7-(1H-pyrazol-5-yl)imidazo[1,5-b]pyridazin-2-34)morpholine] | 19.5 | 12.5 | 6 |  |  |  |  |  |  | 
